Experimental data as given in patent US9149038B2, “4-amino-6-(heterocyclic)picolinates and 6-amino-2-(heterocyclic)pyrimidine-4-carboxylates and their use as herbicides” (Dow AgroSciences LLC, priority 2013, dated 2015).
Where two headings read alike, the source gives them in different places.

Experiments:
[1] = system: Key Grass and Sedge Weeds as well as Grass Crops; assay: Post-Emergent Test II: postemergent herbicidal activity, visual rating after 14 d (Table 8); format: in vivo; settings: post-emergence, 336 h; for pest or weed control at 35 g/ha: 35 g ai/ha; for pest or weed control at 70 g/ha: 70 g ai/ha; for pest or weed control at 140 g/ha: 140 g ai/ha
Method in brief: (§1)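 Visual 0-100% injury score (0 no injury, 100 complete kill) at 14 d post-spray, relative to untreated plants. Seedlings at 1st-2nd true leaf stage; track sprayer at 187 L/ha, highest rate plus ½×, ¼×, ⅛×, 1/16× serial dilutions. Subirrigated after treatment.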

[2] = system: Key Broadleaf Weed and Crop Species; assay: Post-Emergent Test II: postemergent herbicidal activity, visual rating after 14 d (Table 7); format: in vivo; settings: post-emergence, 336 h; for pest or weed control at 35 g/ha: 35 g ai/ha; for pest or weed control at 70 g/ha: 70 g ai/ha; for pest or weed control at 140 g/ha: 140 g ai/ha
Method in brief: as §1

[3] = barnyardgrass (Echinochloa crus-galli), read-out: Visual Growth Reduction (%) 14 Days After Application, ECHCG
[4] = giant foxtail (Setaria faberi), read-out: Visual Growth Reduction (%) 14 Days After Application, SETFA
[5] = maize, corn (Zea mays), read-out: Visual Growth Reduction (%) 14 Days After Application, ZEAMX
[6] = rice (Oryza sativa), read-out: Visual Growth Reduction (%) 14 Days After Application, ORYSA
[7] = wheat, spring (Triticum aestivum), read-out: Visual Growth Reduction (%) 14 Days After Application, TRZAS
[8] = yellow nutsedge (Cyperus esculentus), read-out: Visual Growth Reduction (%) 14 Days After Application, CYPES
[9] = ABUTH: velvetleaf (Abutilon theophrasti), read-out: Visual Growth Reduction (%) 14 Days After Application ABUTH
[10] = AMARE: redroot pigweed (Amaranthus retroflexus), read-out: Visual Growth Reduction (%) 14 Days After Application AMARE
[11] = BRSNN: oilseed rape, canola (Brassica napus), read-out: Visual Growth Reduction (%) 14 Days After Application BRSNN
[12] = CHEAL: lambsquarters (Chenopodium album), read-out: Visual Growth Reduction (%) 14 Days After Application CHEAL
[13] = EPHHL: wild poinsettia (Euphorbia heterophylla), read-out: Visual Growth Reduction (%) 14 Days After Application EPHHL
[14] = HELAN: sunflower (Helianthus annuus), read-out: Visual Growth Reduction (%) 14 Days After Application HELAN

## COC(=O)c1nc(-c2ccc(F)c3c2OC(F)(F)O3)cc(N)c1Cl [Compound 88]
[1]; [3]
  pest or weed control at 35 g/ha: 0 to 29%
  pest or weed control at 70 g/ha: 0 to 29%
  pest or weed control at 140 g/ha: 0 to 29%
[1]; [4]
  pest or weed control at 35 g/ha: 0 to 29%
  pest or weed control at 70 g/ha: 0 to 29%
  pest or weed control at 140 g/ha: 0 to 29%
[1]; [5]
  pest or weed control at 35 g/ha: 0 to 29%
  pest or weed control at 70 g/ha: 0 to 29%
  pest or weed control at 140 g/ha: 0 to 29%
[1]; [6]
  pest or weed control at 35 g/ha: 0 to 29%
  pest or weed control at 70 g/ha: 0 to 29%
  pest or weed control at 140 g/ha: 0 to 29%
[1]; [7]
  pest or weed control at 35 g/ha: 0 to 29%
  pest or weed control at 70 g/ha: 45 to 59%
  pest or weed control at 140 g/ha: 60 to 74%
[1]; [8]
  pest or weed control at 35 g/ha: 30 to 44%
  pest or weed control at 70 g/ha: 60 to 74%
  pest or weed control at 140 g/ha: 75 to 84%
[2]; [9]
  pest or weed control at 35 g/ha: 60 to 74%
  pest or weed control at 70 g/ha: 85 to 94%
  pest or weed control at 140 g/ha: 85 to 94%
[2]; [10]
  pest or weed control at 35 g/ha: 95 to 100%
  pest or weed control at 70 g/ha: 95 to 100%
  pest or weed control at 140 g/ha: 95 to 100%
[2]; [11]
  pest or weed control at 35 g/ha: 60 to 74%
  pest or weed control at 70 g/ha: 60 to 74%
  pest or weed control at 140 g/ha: 75 to 84%
[2]; [12]
  pest or weed control at 35 g/ha: 85 to 94%
  pest or weed control at 70 g/ha: 85 to 94%
  pest or weed control at 140 g/ha: 95 to 100%
[2]; [13]
  pest or weed control at 35 g/ha: 0 to 29%
  pest or weed control at 70 g/ha: 0 to 29%
  pest or weed control at 140 g/ha: 0 to 29%
[2]; [14]
  pest or weed control at 35 g/ha: 30 to 44%
  pest or weed control at 70 g/ha: 60 to 74%
  pest or weed control at 140 g/ha: 60 to 74%
